Measured values published in patent US20240391948A1, “NOVEL COMPOUND THAT INHIBITS TNF-ALPHA GENERATION AND INFLAMMASOME ACTIVITY AND PREPARATION METHOD THEREFOR” (SHAPERON INC., priority 2021, published 2024).

Legend:
Format in all cases: cell-based
[1] = system: J774A.1 (Mouse BALB/c monocyte macrophage cell line) cells; test: LPS+ATP-induced IL-1β secretion inhibition in J774A.1 cells; conditions: J774.A1, 1 μM compound, graded compared to taurodeoxycholic acid (positive control), read-out: IL-1β production inhibition grade
How it was run: (§1)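 Mouse J774A.1 macrophages treated with 1 μM compound; TNF-α secretion measured after LPS stimulation and IL-1β secretion after LPS+ATP stimulation. Suppression graded against taurodeoxycholic acid: A over 100%, B 50–100%, C 20–50%, D under 20%.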

[2] = system: U937 cells (human monocytic cell line); test: BzATP-induced IL-1β secretion inhibition in PMA-differentiated U937 cells; conditions: U-937, U937 cells differentiated with PMA, read-out: IL-1β production inhibition grade (IC50)
How it was run: (§2)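 U937 cells were PMA-differentiated into macrophages and treated with compound before inflammatory stimulus. TNF-α secretion was induced with Pam2CSK4 and IL-1β secretion with BzATP. IC50 (μM) values are graded A-D, with separate cut-offs per cytokine.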

[3] = system: U937 cells (human monocytic cell line); test: Pam2CSK4-induced TNF-α secretion inhibition in PMA-differentiated U937 cells; conditions: U-937, U937 cells differentiated with PMA, read-out: TNF-α production inhibition grade (IC50)
How it was run: as §2

[4] = system: J774A.1 (Mouse BALB/c monocyte macrophage cell line) cells; test: LPS-induced TNF-α secretion inhibition in J774A.1 cells; conditions: J774.A1, 1 μM compound, graded compared to taurodeoxycholic acid (positive control), read-out: TNF-α production inhibition grade
How it was run: as §1

SMILES | inhibition at 1 µM [1] [%] | IC50 [2] [µM] | IC50 [3] [µM] | inhibition at 1 µM [4] [%]
C[C@H](CCC(=O)NC[C@@H](C)S(=O)(=O)O)[C@H]1CC[C@H]2[C@@H]3[C@H](O)C[C@@H]4C[C@H](O)CC[C@]4(C)[C@H]3C[C@H](O)[C@]12C [NC20023] | < 20 | 0.05 to 0.1 | ≥ 2 | < 20
C[C@H](CCC(=O)N[C@@H](CO)CS(=O)(=O)O)[C@H]1CC[C@H]2[C@@H]3CC[C@@H]4C[C@H](O)CC[C@]4(C)[C@H]3C[C@H](O)[C@]12C [NC10040] | < 20 | ≥ 0.2 | 1 to 2 | < 20
CC[C@H]1[C@@H](O)[C@@H]2[C@H](C[C@H](O)[C@]3(C)[C@@H]([C@H](C)CCC(=O)N[C@H](CC(C)C)CS(=O)(=O)O)CC[C@@H]23)[C@@]2(C)CC[C@@H](O)C[C@@H]12 [NC50031] | 50 to 100 | 0.05 to 0.1 | ≥ 2 | < 20
CC[C@H]1[C@@H](O)[C@@H]2[C@H](CC[C@]3(C)[C@@H]([C@H](C)CCC(=O)N(CCS(=O)(=O)O)c4ccccc4)CC[C@@H]23)[C@@]2(C)CC[C@@H](O)C[C@@H]12 [NC40037] | 20 to 50 | 0.05 to 0.1 | 0.5 to 1 | < 20
C[C@H](CCC(=O)N(CCS(=O)(=O)O)C1CCCCC1)[C@H]1CC[C@H]2[C@@H]3CC[C@@H]4C[C@H](O)CC[C@]4(C)[C@H]3C[C@H](O)[C@]12C [NC10004] | 50 to 100 | ≥ 0.2 | ≥ 2 | 20 to 50
CC(C)[C@@H](CS(=O)(=O)O)NC(=O)CC[C@@H](C)[C@H]1CC[C@H]2[C@@H]3[C@H](O)C[C@@H]4C[C@H](O)CC[C@]4(C)[C@H]3C[C@H](O)[C@]12C [NC20016] | > 100 | < 0.05 | 1 to 2 | < 20
C[C@H](CCC(=O)N[C@H](c1ccccc1)[C@H](C)S(=O)(=O)O)[C@H]1CC[C@H]2[C@@H]3CC[C@@H]4C[C@H](O)CC[C@]4(C)[C@H]3CC[C@]12C [NC10070] | > 100 | < 0.05 | < 0.5 | 50 to 100
CC(C)[C@H](CS(=O)(=O)O)NC(=O)CC[C@@H](C)[C@H]1CC[C@H]2[C@@H]3CC[C@@H]4C[C@H](O)CC[C@]4(C)[C@H]3CC[C@]12C [NC10068] | > 100 | < 0.05 | < 0.5 | < 20
C[C@H](CCC(=O)N1CCN(S(=O)(=O)O)CC1)[C@H]1CC[C@H]2[C@@H]3CC[C@@H]4C[C@H](O)CC[C@]4(C)[C@H]3C[C@H](O)[C@]12C [NC10009] | > 100 | < 0.05 | < 0.5 | > 100
CC[C@H]1[C@@H](O)[C@@H]2[C@H](C[C@H](O)[C@]3(C)[C@@H]([C@H](C)CCC(=O)N4CC(S(=O)(=O)O)C4)CC[C@@H]23)[C@@]2(C)CC[C@@H](O)C[C@@H]12 [NC50012] | > 100 | < 0.05 | 1 to 2 | < 20
C[C@H](CCC(=O)NC[C@H](C)S(=O)(=O)O)[C@H]1CC[C@H]2[C@@H]3CC[C@@H]4CC(=O)CC[C@]4(C)[C@H]3CC[C@]12C [NC30022] | 20 to 50 | ≥ 0.2 | ≥ 2 | 20 to 50
C[C@H](CCC(=O)N1CC[C@H](S(=O)(=O)O)C1)[C@H]1CC[C@H]2[C@@H]3[C@H](O)C[C@@H]4C[C@H](O)CC[C@]4(C)[C@H]3C[C@H](O)[C@]12C [NC20033] | 20 to 50 | 0.05 to 0.1 | 1 to 2 | < 20
C[C@H](CCC(=O)N(CCS(=O)(=O)O)Cc1ccccc1)[C@H]1CC[C@H]2[C@@H]3[C@H](O)C[C@@H]4C[C@H](O)CC[C@]4(C)[C@H]3C[C@H](O)[C@]12C [NC20005] | > 100 | 0.05 to 0.1 | 0.5 to 1 | < 20
C[C@H](CCC(=O)N[C@H](CS(=O)(=O)O)c1ccccc1)[C@H]1CC[C@H]2[C@@H]3CC[C@@H]4C[C@H](O)CC[C@]4(C)[C@H]3CC[C@]12C [NC10069] | > 100 | < 0.05 | < 0.5 | < 20
C[C@H](CCC(=O)N[C@@H](CS(=O)(=O)O)c1ccccc1)[C@H]1CC[C@H]2[C@@H]3[C@H](O)C[C@@H]4C[C@H](O)CC[C@]4(C)[C@H]3C[C@H](O)[C@]12C [NC20019] | < 20 | 0.05 to 0.1 | 1 to 2 | < 20
CC[C@H]1[C@@H](O)[C@@H]2[C@H](C[C@H](O)[C@]3(C)[C@@H]([C@H](C)CCC(=O)NC(C)(C)CS(=O)(=O)O)CC[C@@H]23)[C@@]2(C)CC[C@@H](O)C[C@@H]12 [NC50013] | > 100 | < 0.05 | 1 to 2 | < 20
C[C@H](CCC(=O)N1CC[C@@H](S(=O)(=O)O)C1)[C@H]1CC[C@H]2[C@@H]3CC[C@@H]4CC(=O)CC[C@]4(C)[C@H]3CC[C@]12C [NC30034] | < 20 | ≥ 0.2 | 0.5 to 1 | < 20
C[C@H](CCC(=O)NCCC(=O)O)[C@H]1CC[C@H]2[C@@H]3CC[C@@H]4CC(=O)CC[C@]4(C)[C@H]3CC[C@]12C [NC30002] | 50 to 100 | 0.1 to 0.2 | 1 to 2 | < 20
C[C@H](CCC(=O)N1CCC[C@@H]1CS(=O)(=O)O)[C@H]1CC[C@H]2[C@@H]3CC[C@@H]4C[C@H](O)CC[C@]4(C)[C@H]3CC[C@]12C [NC10076] | > 100 | 0.05 to 0.1 | ≥ 2 | < 20
C[C@H](CCC(=O)N[C@H](CS(=O)(=O)O)c1ccccc1)[C@H]1CC[C@H]2[C@@H]3CC[C@@H]4CC(=O)CC[C@]4(C)[C@H]3CC[C@]12C [NC30018] | < 20 | ≥ 0.2 | ≥ 2 | < 20
CC[C@H]1[C@@H](O)[C@@H]2[C@H](C[C@H](O)[C@]3(C)[C@@H]([C@H](C)CCC(=O)N[C@H](Cc4ccccc4)CS(=O)(=O)O)CC[C@@H]23)[C@@]2(C)CC[C@@H](O)C[C@@H]12 [NC50015] | > 100 | 0.05 to 0.1 | 1 to 2 | < 20
C[C@H](CCC(=O)N1CCC[C@H]1CS(=O)(=O)O)[C@H]1CC[C@H]2[C@@H]3CC[C@@H]4C[C@H](O)CC[C@]4(C)[C@H]3C[C@H](O)[C@]12C [NC10037] | 50 to 100 | ≥ 0.2 | < 0.5 | < 20
C[C@H](CCC(=O)N1CCC[C@@H](S(=O)(=O)O)C1)[C@H]1CC[C@H]2[C@@H]3[C@H](O)C[C@@H]4C[C@H](O)CC[C@]4(C)[C@H]3C[C@H](O)[C@]12C [NC20010] | 50 to 100 | < 0.05 | 1 to 2 | < 20
CC[C@H]1[C@@H](O)[C@@H]2[C@H](C[C@H](O)[C@]3(C)[C@@H]([C@H](C)CCC(=O)N[C@@H](CC(C)C)CS(=O)(=O)O)CC[C@@H]23)[C@@]2(C)CC[C@@H](O)C[C@@H]12 [NC50030] | 50 to 100 | 0.1 to 0.2 | ≥ 2 | < 20
CC[C@H]1[C@@H](O)[C@@H]2[C@H](CC[C@]3(C)[C@@H]([C@H](C)CCC(=O)N[C@@H](CO)CS(=O)(=O)O)CC[C@@H]23)[C@@]2(C)CC[C@@H](O)C[C@@H]12 [NC40024] | < 20 | ≥ 0.2 | 0.5 to 1 | < 20
C[C@H](CCC(=O)NCS(=O)(=O)O)[C@H]1CC[C@H]2[C@@H]3CC[C@@H]4C[C@H](O)CC[C@]4(C)[C@H]3C[C@H](O)[C@]12C [NC10001] | > 100 | < 0.05 | ≥ 2 | < 20
C[C@H](CCC(=O)N1CC(S(=O)(=O)O)C1)[C@H]1CC[C@H]2[C@@H]3CC[C@@H]4C[C@H](O)CC[C@]4(C)[C@H]3CC[C@]12C [NC10063] | > 100 | < 0.05 | 0.5 to 1 | < 20
CC(C)[C@H](CS(=O)(=O)O)NC(=O)CC[C@@H](C)[C@H]1CC[C@H]2[C@@H]3CC[C@@H]4CC(=O)CC[C@]4(C)[C@H]3CC[C@]12C [NC30017] | < 20 | ≥ 0.2 | ≥ 2 | < 20
C[C@H](CCC(=O)NC(C)(C)CS(=O)(=O)O)[C@H]1CC[C@H]2[C@@H]3CC[C@@H]4C[C@H](O)CC[C@]4(C)[C@H]3C[C@H](O)[C@]12C [NC10029] | > 100 | 0.05 to 0.1 | ≥ 2 | < 20
